Experimental data taken from article PMC3656107, “Polymorphisms in the F8 Gene and MHC-II Variants as Risk Factors for the Development of Inhibitory Anti-Factor VIII Antibodies during the Treatment of Hemophilia A: A Computational Assessment” (PLoS Computational Biology, 2013).

Legend:
MHC-II DRB1*15:01 [1] = biological target: T1, MHC-II DRB1*15:01 (Homo sapiens, UniProt P01903+P01911); assay: Cell-free REVEAL class II binding assay; details: signal of test peptide as percentage of allele-specific positive control peptide, fluorescence, conformation-specific monoclonal antibody
T1 construct: purchased ProImmune
Method in brief: (§1)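 REVEAL format, cell-free. Antibody-based fluorescence detection of native peptide–MHC-II complex; value reported as % of allele-matched positive control peptide signal.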

MHC-II DRB1*15:03 [2] = biological target: T2, MHC-II DRB1*15:03 (Homo sapiens, UniProt P01903+P01911, Y59H); assay: Cell-free REVEAL class II binding assay; details: signal of test peptide as percentage of allele-specific positive control peptide, fluorescence, conformation-specific monoclonal antibody
T2 construct: purchased ProImmune
T2 sequence (P01903 26-254, other chains not shown): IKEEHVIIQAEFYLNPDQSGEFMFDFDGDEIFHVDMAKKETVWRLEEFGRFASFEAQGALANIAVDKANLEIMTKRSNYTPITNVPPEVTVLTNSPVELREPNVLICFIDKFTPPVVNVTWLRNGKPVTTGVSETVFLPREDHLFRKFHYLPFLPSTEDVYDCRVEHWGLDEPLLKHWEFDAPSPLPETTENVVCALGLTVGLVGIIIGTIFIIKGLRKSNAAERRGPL
Method in brief: as §1

MHC-II DRB1*03:01 [3] = biological target: T3, MHC-II DRB1*03:01 (Homo sapiens, UniProt P01903+P01911, A100K/A102G/A103R/A169T/F55Y/I96L/K41T/L162R/M171V/P40S/Q125H/Q178H/Q39Y/R42S/S66N/T106N/T262R/W38E/Y61H); assay: Cell-free REVEAL class II binding assay; details: signal of test peptide as percentage of allele-specific positive control peptide, fluorescence, conformation-specific monoclonal antibody
T3 sequence (P01903 26-254 limits assumed, other chains not shown): as the sequence (P01903 26-254, other chains not shown) above
Method in brief: as §1

MHC-II DRB1*11:01 [4] = biological target: T4, MHC-II DRB1*11:01 (Homo sapiens, UniProt P01903+P01911, A100R/A169T/A87E/I96F/K41T/L162R/M171V/P40S/Q125H/Q178H/Q39Y/Q99D/R42S/S66Y/T262R/V115G/W38E); assay: Cell-free REVEAL class II binding assay; details: signal of test peptide as percentage of allele-specific positive control peptide, fluorescence, conformation-specific monoclonal antibody
T4 sequence (P01903 26-254 limits assumed, other chains not shown): as the sequence (P01903 26-254, other chains not shown) above
Method in brief: as §1

MHC-II DRB1*04:01 [5] = biological target: T5, MHC-II DRB1*04:01 (Homo sapiens, UniProt P01903+P01911, A100K/A169T/F76Y/I96L/K127E/L162R/M171V/N62H/P40V/Q125Y/R42H/S133A/S149N/S66Y/V115G/V209L/W38E); assay: Cell-free REVEAL class II binding assay; details: signal of test peptide as percentage of allele-specific positive control peptide, fluorescence, conformation-specific monoclonal antibody
Method in brief: as §1

MHC-II DRB1*07:01 [6] = biological target: T6, MHC-II DRB1*07:01 (Homo sapiens, UniProt P01903+P01911, A100R/A102G/A103Q/D57E/D86V/E43K/F76Y/K127E/L162R/M171V/P40G/Q125H/Q99D/R33Q/R42Y/R54Q/S133A/S66F/T210M/V115G/Y107V/Y59L/Y89S); assay: Cell-free REVEAL class II binding assay; details: signal of test peptide as percentage of allele-specific positive control peptide, fluorescence, conformation-specific monoclonal antibody
Method in brief: as §1

MHC-II DRB1*15:01 [7] = biological target: T1, MHC-II DRB1*15:01; assay: Cell-free REVEAL class II stability assay; details: half-life of peptide-MHC-II complex (h, capped at 120) x Binding Score / 100, conformational ELISA
Method in brief: (§2)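 Complexes assemble over 96 hr at 10°C; samples are snap-frozen, then probed by anti-HLA conformational ELISA. Dissociation is sampled the same way. Fitted k yields t1/2, normalized via Binding Score.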

MHC-II DRB1*15:03 [8] = biological target: T2, MHC-II DRB1*15:03; assay: Cell-free REVEAL class II stability assay; details: half-life of peptide-MHC-II complex (h, capped at 120) x Binding Score / 100, conformational ELISA
Method in brief: as §2

MHC-II DRB1*03:01 [9] = biological target: T3, MHC-II DRB1*03:01; assay: Cell-free REVEAL class II stability assay; details: half-life of peptide-MHC-II complex (h, capped at 120) x Binding Score / 100, conformational ELISA
Method in brief: as §2

MHC-II DRB1*11:01 [10] = biological target: T4, MHC-II DRB1*11:01; assay: Cell-free REVEAL class II stability assay; details: half-life of peptide-MHC-II complex (h, capped at 120) x Binding Score / 100, conformational ELISA
Method in brief: as §2

MHC-II DRB1*04:01 [11] = biological target: T5, MHC-II DRB1*04:01; assay: Cell-free REVEAL class II stability assay; details: half-life of peptide-MHC-II complex (h, capped at 120) x Binding Score / 100, conformational ELISA
Method in brief: as §2

MHC-II DRB1*07:01 [12] = biological target: T6, MHC-II DRB1*07:01; assay: Cell-free REVEAL class II stability assay; details: half-life of peptide-MHC-II complex (h, capped at 120) x Binding Score / 100, conformational ELISA
Method in brief: as §2

Row | Binding Score (MHC-II DRB1*15:01 [1]) [%] | Binding Score (MHC-II DRB1*15:03 [2]) [%] | Binding Score (MHC-II DRB1*03:01 [3]) [%] | Binding Score (MHC-II DRB1*11:01 [4]) [%] | Binding Score (MHC-II DRB1*04:01 [5]) [%] | Binding Score (MHC-II DRB1*07:01 [6]) [%] | Stability Index (MHC-II DRB1*15:01 [7]) | Stability Index (MHC-II DRB1*15:03 [8]) | Stability Index (MHC-II DRB1*03:01 [9]) | Stability Index (MHC-II DRB1*11:01 [10]) | Stability Index (MHC-II DRB1*04:01 [11]) | Stability Index (MHC-II DRB1*07:01 [12]) | Sequence
1 | 2.4 | 0.1 | 56.5 | 5.4 | 24.2 | 0.0 | 2.9 | 0.1 | 14.2 | 0.2 | 5.5 | 0.0 | HKMVYEDTLTLFPFS [synthetic wild type FVIII 15 mer peptide]
2 | 37.9 | 26.8 | 12.6 | 23.1 | 0.8 | 0.0 | 45.5 | 1.6 | 2.4 | 0.8 | 0.1 | 0.0 | TKSDPRCLTRYYSSF [synthetic wild type FVIII 15 mer peptide]
3 | 0.5 | 0.2 | 0.0 | 0.1 | 17.7 | 0.0 | 0.6 | 0.1 | 0.0 | 0.0 | 10.2 | 0.0 | AWRPQVNNPKEWLQV [synthetic wild type FVIII 15 mer peptide]
4 | 0.0 | 0.1 | 11.1 | 0.2 | 0.7 | 0.1 | 0.0 | 0.0 | 2.0 | 0.0 | 0.1 | 0.0 | DGAYAPVLQDFRSLN [synthetic wild type FVIII 15 mer peptide, region of ns-SNP D1241E]
5 | 4.7 | 0.2 | 0.1 | 4.9 | 6.4 | 2.7 | 0.4 | 0.0 | 0.1 | 0.5 | 0.8 | 3.2 | PWFAHRTPMPKIQNV [synthetic wild type FVIII 15 mer peptide, region of ns-SNP R776G]
6 | 1.0 | 0.2 | 30.5 | 92.0 | 17.9 | 0.3 | 0.1 | 0.0 | 17.5 | 23.6 | 2.8 | 0.3 | LFLLSTRQNVEGSYD [synthetic wild type FVIII 15 mer peptide, region of ns-SNP D1241E]
7 | 602.6 | 1.4 | 1.8 | 114.1 | 44.5 | 0.0 | 723.1 | 1.7 | 0.2 | 33.1 | 30.9 | 0.0 | YISQFIIMYSLDGKK [synthetic wild type FVIII 15 mer peptide]
8 | 0.1 | 0.2 | 0.0 | 0.5 | 8.2 | 4.0 | 0.1 | 0.0 | 0.0 | 0.1 | 0.5 | 1.2 | KTDPWFAHRTPMPKI [synthetic wild type FVIII 15 mer peptide, region of ns-SNP R776G]
9 | 1.4 | 0.0 | 0.0 | 0.1 | 7.8 | 0.0 | 0.8 | 0.0 | 0.0 | 0.0 | 0.8 | 0.0 | MKVTGVTTQGVKSLL [synthetic wild type FVIII 15 mer peptide, region of ns-SNP M2238V]
10 | 18.1 | 0.7 | 1.3 | 0.3 | 1.3 | 0.2 | 1.4 | 0.0 | 0.1 | 0.0 | 0.1 | 0.0 | SLHAVGVSYWKASEG [synthetic wild type FVIII 15 mer peptide]
